Reference: EP0159254A1, “Derivatives of omega-mercaptopropanamide and their salts, their preparation, their use as medicines and compositions containing them” (ROUSSEL-UCLAF, priority 1984, dated 1985)

Molecular target: T1, enképhalinase (Rattus norvegicus, UniProt P07861)
T1 construct: L'activité de l'enképhalinase est déterminée dans une fraction membranaire de striatum de rat; from tissue; host or cells: rat striatum, particulate (membrane) fraction
T1 sequence (P07861 1-750): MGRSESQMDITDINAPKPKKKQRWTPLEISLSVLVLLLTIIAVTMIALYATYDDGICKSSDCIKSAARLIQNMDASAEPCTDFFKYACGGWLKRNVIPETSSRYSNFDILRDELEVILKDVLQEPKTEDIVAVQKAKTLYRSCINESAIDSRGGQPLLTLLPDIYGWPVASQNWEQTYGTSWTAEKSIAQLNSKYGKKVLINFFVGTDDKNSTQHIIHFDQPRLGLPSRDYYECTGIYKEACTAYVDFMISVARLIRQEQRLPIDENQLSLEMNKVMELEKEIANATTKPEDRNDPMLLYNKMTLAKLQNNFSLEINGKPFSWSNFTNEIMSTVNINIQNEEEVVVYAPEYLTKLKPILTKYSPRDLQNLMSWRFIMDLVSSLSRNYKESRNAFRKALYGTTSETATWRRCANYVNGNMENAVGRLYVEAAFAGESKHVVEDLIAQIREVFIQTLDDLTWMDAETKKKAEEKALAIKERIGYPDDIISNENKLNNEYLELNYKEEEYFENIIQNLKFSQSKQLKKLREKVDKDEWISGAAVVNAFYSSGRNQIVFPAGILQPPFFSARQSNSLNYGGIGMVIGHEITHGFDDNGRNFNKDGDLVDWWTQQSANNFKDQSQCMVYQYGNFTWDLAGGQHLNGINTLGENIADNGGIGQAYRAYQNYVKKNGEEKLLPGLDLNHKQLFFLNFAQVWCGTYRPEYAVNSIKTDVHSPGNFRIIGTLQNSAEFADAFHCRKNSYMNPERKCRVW
Assay: Enkephalinase assay and determination of the effect of inhibitors (hydrolysis of tritiated leucine-enkephalin)
Type: biochemical
Conditions: membrane fraction of rat striatum; 20 nanomoles tritiated leucine-enkephalin, 1 mM puromycin, TRIS buffer, 15 min at 25°C; read-out: Inhibition de l'enképhalinase CI 50
Method: 1) Dosage de l'enképhalinase et détermination de l'effet des inhibiteurs.
L'activité de l'enképhalinase est déterminée dans une fraction membranaire de striatum de rat.
Les striatum sont prélevés sur glace et homogénéisés en tampon TRIS 0.05M pH 7,4 (20 fois le volume). Après une première centrifugation à 1000 g, la fraction particulaire est obtenue à la suite de deux centrifugations de 10 minutes à 20 000 g. Le culot est ensuite mis en suspension dans un tampon TRIS et conservé à 4°C. Le dosage des protéines est effectué selon la méthode au bleu de Comassie.
Après une préincubation de 15 minutes à 25°C, une aliquote de protéines est incubée pendant 15 minutes à 25°C en présence de 20 nanomoles de leucine-enképhaline tritiée (sur le premier acide aminé) préalablement purifiée, d'1 mM de puromycine et du produit à tester en tampon TRIS. La réaction d'hydrolyse est stoppée par addition d'acide chlorhydrique 0,2N et l'incubat subit une déprotéinisation par la chaleur (15 minutes à 95°C).
Les métabolites tritiés obtenus par hydrolyse sont séparés de l'enképhaline par chromatographie sur colonne de porapak Q : ils sont élués avec du tampon TRIS tandis que l'enképhaline est retenue sur la colonne et recueillie ensuite en phase éthanolique.
L'activité des différents produits est exprimée en concentrations inhibitrices 50 %.

Row | IC50 [nM] | Compound
1 | 1000 | O=C(NCCc1ccccc1)C(CS)Cc1ccccc1 (stereo not drawn) [Exemple 8, α -(mercaptométhyl) N-(2-phényl éthyl) benzène propanamide]
2 | 80 | O=C(NCc1ccncc1)C(CS)Cc1ccccc1 (stereo not drawn) [Exemple 24, Chlorhydrate d'α-(mercaptométhyl) N-/(pyridin-4-yl) méthyl/ benzène propanamide]
3 | 100 | O=C(NCc1ccccn1)C(CS)Cc1ccccc1 (stereo not drawn) [Exemple 26, Chlorhydrate d'α-(mercaptométhyl) N-/(Pyridin-2-yl) méthyl/benzène propanamide]

More lines, now with the values behind:

Row | Compound | IC50 [nM]
4 | O=C(NC1CCCCC1)C(CS)Cc1ccccc1 (stereo not drawn) [Exemple 2, N-cyclohexyl α-(mercaptométhyl) benzène propanamide] | 100
5 | Chlorhydrate d'α-(mercaptométhyl) N-/(pyridin-3-yl) méthyl/ benzène propanamide [Exemple 22] | 80
